Measured values: paper PMC4123750 (Cell, 2014)

T1: NtDRM MTase (Nicotiana tabacum, UniProt Q76KU6)
T1 sequence (Q76KU6 255-608): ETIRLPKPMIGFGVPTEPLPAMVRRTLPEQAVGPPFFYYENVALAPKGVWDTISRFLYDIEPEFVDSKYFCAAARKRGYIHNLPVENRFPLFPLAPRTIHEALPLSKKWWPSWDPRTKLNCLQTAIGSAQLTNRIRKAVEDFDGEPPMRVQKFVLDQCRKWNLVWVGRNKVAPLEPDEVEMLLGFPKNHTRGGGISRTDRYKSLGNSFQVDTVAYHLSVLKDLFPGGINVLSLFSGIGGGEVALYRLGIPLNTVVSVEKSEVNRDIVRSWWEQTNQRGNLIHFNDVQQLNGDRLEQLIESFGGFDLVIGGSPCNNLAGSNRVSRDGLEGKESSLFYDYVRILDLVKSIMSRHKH

B1: Nicotiana tabacum DRM methyltransferase domain (NtDRM MTase, residues 255-608) (domain or fragment, UniProt Q76KU6 255-608, looked up)
chain: ETIRLPKPMIGFGVPTEPLPAMVRRTLPEQAVGPPFFYYENVALAPKGVWDTISRFLYDIEPEFVDSKYFCAAARKRGYIHNLPVENRFPLFPLAPRTIHEALPLSKKWWPSWDPRTKLNCLQTAIGSAQLTNRIRKAVEDFDGEPPMRVQKFVLDQCRKWNLVWVGRNKVAPLEPDEVEMLLGFPKNHTRGGGISRTDRYKSLGNSFQVDTVAYHLSVLKDLFPGGINVLSLFSGIGGGEVALYRLGIPLNTVVSVEKSEVNRDIVRSWWEQTNQRGNLIHFNDVQQLNGDRLEQLIESFGGFDLVIGGSPCNNLAGSNRVSRDGLEGKESSLFYDYVRILDLVKSIMSRHKH

What was measured:
NtDRM MTase = target: T1, NtDRM MTase; assay: X-ray crystal structure, […] A; format: binding; conditions: cofactor site; co-crystallised at protein:sinefungin molar ratio 1:3
crystal structure = target: the molecule itself; assay: crystal structure

| Molecule | X-ray crystal structure, 2.8 A (NtDRM MTase) | stoichiometry N (crystal structure) |
| --- | --- | --- |
| Nc1ncnc2c1ncn2[C@@H]1O[C@H](C[C@@H](N)CC[C@H](N)C(=O)O)[C@@H](O)[C@H]1O [sinefungin] | NtDRM MTase dimer with each molecule bound to a cofactor analog sinefungin in the active site |  |
| B1 |  | 2 |
